Assay type in all cases: physicochemical
A short description of data set [1]: Dynamic vapour sorption experiment. The settings on record: for weight gain during the sorption isotherm: from 40-80% RH, 10% RH increments. The procedure:
Further weight loss above 160° C. may correspond with the onset of decomposition. A dynamic vapour sorption experiment of Type B material was performed. The sample was subjected to a step profile from 40-90% RH at 10% increments, followed by desorption from 90-0% RH at 10% increments and then adsorption from 0-40% RH at 10% increments.
A dynamic vapour sorption experiment of Type E material was performed. The sample was subjected to a step profile from 40 to 90% RH at 10% increments, followed by desorption from 90 to 0% RH at 10% increments and then adsorption from 0 to 40% RH at 10% increments. […] There was a larger weight gain above 80% RH.

The nature of data set [2]: Solid form stability of polymorph on drying or storage, analysed by XRPD. The procedure:
Compound 1 acetate Type E (1 g) was added to a beaker and dried in the vacuum oven at 40° C. overnight (not more than 18 hours). The solid was analyzed by XRPD analysis and shown to be Type B (FIG. 6).
Four samples of compound 1 acetate Type E were added to vials and placed in a desiccator, under vacuum, for up to 7 days.

Data set [3] can be described thus: Slurrying in EtOH at 40° C., form transformation by XRPD. Particulars: after 3 days.
The nature of data set [4]: Form stability as a function of ethanol activity (aEtOH). The procedure: Compound 1 acetate and a solvent or solvent mixture were added to a vial and stirred at ambient temperature overnight to form a saturated suspension. Ethanol (EtOH) activity (aEtOH) of the solvent or solvent mixture was calculated using UNIFAC software. A further aliquot of the solvent or solvent mixture was added to the vial if the mixture was very thick. If all solids had dissolved, further amounts of compound 1 acetate were added and the mixture was stirred overnight. The slurry was then seeded with compound 1 acetate and compound 1 acetate-EtOH solvate and allowed to stir at ambient temperature for several days before isolation of solids and analysis by XRPD.
Compound 1 acetate Type E is a metastable solvate and converts to compound 1 acetate Type B on drying or storage at low ethanol activity (aEtOH<0.2). Type E was stable at an EtOH activity of >0.8.

[5] abbreviates: Ambient conditions (44-63% RH, 20-25° C.) for 5 days.
Where [6] appears, read: ambient temperature in the desiccator.

Starred links: 1 amine or outer side, 2 acyl side, 3 side chain; linkers in the order of their positions; H or OH if unused. Positions of bridges follow the written chain, without caps; N, C: chain ends. Non-standard residues stand in square brackets, D forms with d. Residues, ends and D or L forms follow the SMILES beside them. *: point of attachment. Orn(4R-OH,5R-OCH2CH2NMe3+) = C[N+](C)(C)CCO[C@@H](N[*:3])[C@H](O)C[C@H](N[*:1])C(=O)[*:2]; pTerphenylCO(4''-OnC5H11) = CCCCCOc1ccc(-c2ccc(-c3ccc(C(=O)*)cc3)cc2)cc1; hTyr(3S-OH,4S-OH) = N[C@H](C(=O)O)[C@H](O)[C@@H](O)c1ccc(O)cc1; Pro(3S-OH,4S-Me) = C[C@H]1CN[C@H](C(=O)O)[C@H]1O; Hyp = O=C(O)[C@@H]1C[C@@H](O)CN1

Turning to `CCCCCOc1ccc(-c2ccc(-c3ccc(C(=O)N[C@H]4C[C@@H](O)[C@@H](OCC[N+](C)(C)C)NC(=O)[C@@H]5[C@@H](O)[C@@H](C)CN5C(=O)[C@H]([C@@H](C)O)NC(=O)[C@H]([C@H](O)[C@@H](O)c5ccc(O)cc5)NC(=O)[C@@H]5C[C@@H](O)CN5C(=O)[C@H]([C@@H](C)O)NC4=O)cc3)cc2)cc1` [Type B] ({pTerphenylCO(4''-OnC5H11)}-[Orn(4R-OH,5R-OCH2CH2NMe3+)]T[Hyp][hTyr(3S-OH,4S-OH)]T[Pro(3S-OH,4S-Me)]; lactam 1-C), the “weight gain during the sorption isotherm” value in data set [1] was determined as 6%. In data set [2] (setting [5]), the “XRPD Result” value is “Type B”. In addition, in data set [3], the “form transformation to Type A (XRPD)” value was “no form transformation”.

In the case of `CCCCCOc1ccc(-c2ccc(-c3ccc(C(=O)N[C@H]4C[C@@H](O)[C@@H](OCC[N+](C)(C)C)NC(=O)[C@@H]5[C@@H](O)[C@@H](C)CN5C(=O)[C@H]([C@@H](C)O)NC(=O)[C@H]([C@H](O)[C@@H](O)c5ccc(O)cc5)NC(=O)[C@@H]5C[C@@H](O)CN5C(=O)[C@H]([C@@H](C)O)NC4=O)cc3)cc2)cc1` [Type E] ({pTerphenylCO(4''-OnC5H11)}-[Orn(4R-OH,5R-OCH2CH2NMe3+)]T[Hyp][hTyr(3S-OH,4S-OH)]T[Pro(3S-OH,4S-Me)]; lactam 1-C), the “weight loss during the equilibration hold” value in data set [1] (equilibration hold at 40% RH) is reported as around 18.5%. Besides, the “weight gain during the sorption isotherm” value in data set [1] amounted to 5%. Also, the “XRPD Result” value in data set [2] (setting [5]) is “Type B”; in data set [2] (Desiccator under vacuum at ambient conditions for 4 hours), “Type E”; in data set [2] (Desiccator under vacuum at ambient conditions for 1 day), “Type B + Type E”; in data set [2] (Desiccator under vacuum at ambient conditions for 5 days), “Type B”; in data set [2] (Desiccator under vacuum at ambient conditions for 7 days), “Type B”. Moreover, the “time for which the form was stable” value in data set [2] (setting [6]) is listed as “up to 4 hours”. The “time to complete conversion to Type B” value in data set [2] (setting [6]) is at most 5 days. In addition, the “XRPD Result after drying” value in data set [2] (vacuum oven at 40° C. overnight (not more than 18 hours)) is “Type B”. The “EtOH activity at which the form was stable” value in data set [4] is above 0.8. Moreover, the “ethanol activity at which the form converts to Type B on storage” value in data set [4] (low ethanol activity) is recorded as below 0.2.

The values above are taken from patent US12060439B2, “Polymorph of echinocandin antifungal agent” (Cidara Therapeutics, Inc., priority 2018, dated 2024).
